The source of these data is EP4559923A1, “ANTIHISTAMINE COMPOUND, AND PREPARATION METHOD THEREFOR AND USE THEREOF” (HC Synthetic Pharmaceutical Co., Ltd., priority 2022, dated 2024).

One assay relates to histamine-induced asthma. Put plainly: Antiasthmatic effect on histamine-induced asthma in guinea pigs (latency period). Format: in vivo. The settings on record: X±s, n = 5; for Post-administration latency period: 1 mg/kg oral gavage, sixty minutes after administration, histamine hydrochloride spray, no asthma within 8 minutes counted as 8 minutes; for Pre-administration latency period: baseline before dosing, histamine hydrochloride spray 0.8 mg/mL for 40 seconds. The procedure: The guinea pigs were placed in a polymethyl methacrylate bell jar and a histamine hydrochloride solution was sprayed ultrasonically (0.8 mg/mL) for 40 seconds. The time point at which the guinea pigs developed asthma was recorded. The time of convulsion and fall was taken as the latency period. Guinea pigs with a latency period exceeding 180 seconds were not selected. […] The guinea pigs were administered by oral gavage at a dose of 2 mL/kg·bw. Sixty minutes after the administration, the guinea pigs were placed in bell jars, and histamine hydrochloride solution was sprayed under the same conditions as in the previous selection. The latency period for the onset of asthma was recorded. […] The results were processed statistically.

Another assay concerns histamine. The experiment in a line: Muscle tone of isolated ileal smooth muscle of guinea pigs contracted with histamine. The settings on record: Table 4, x±s, n = 8; for Smooth muscle tone (g) After addition of histamine: after 0.05 mL of histamine, before compound; for Smooth muscle tone (g) Before administration: before histamine and compound; for Antispasmodic percentage (%): relative to tone after adding histamine, 3 min. As for the experimental part:
(§1) The guinea pig was knocked unconscious with a wooden stick, and the abdomen was immediately dissected to separate the ileum about 15 cm in length. The contents of the intestinal segment were flushed with Tyrode's solution and placed in Tyrode's solution at a constant temperature of 37°C for later use, and oxygen was supplied simultaneously. The experimental intestinal tract (1 cm in length) was cut and placed into 20 ml of Tyrode's solution at a constant temperature of 37°C with a continuous oxygen supply. One end of the intestine was fixed on the ventilation hook and the other end was connected to the muscle tone transducer and led to the computer interface. The muscle tone value of the ileal smooth muscle was recorded with a BL system. The experiment was carried out after the intestinal segment contraction became stable.
(§2) After the ileal peristalsis curve stabilized, the tone values before adding the compound were recorded, and then 0.05 mL of histamine was added. […] The operation was repeated 8 times. The antispasmodic percentage was calculated using the following equation. Antispasmodic percentage; = (Tone value after adding histamine−Tone value after adding subject compound)/(Tone value after adding histamine) × 100% [formula]

Assay in assay [1]: as above
The settings on record: Table 4; 3 minutes after adding 0.05 mL compound at maximum histamine contraction; x±s, n = 8. As for the experimental part: as §1, §2

The subject of assay [2] is isolated ileal smooth muscle. Put plainly: Muscle tone of isolated ileal smooth muscle of guinea pigs, compound alone. The settings on record: Table 3, no histamine, X±s, n = 8; for Smooth muscle tone (g) After administration: 5 minutes after adding the drug; for Smooth muscle tone (g) Before administration: before adding the drug; for Antispasmodic percentage (%): relative to tone before adding compound, 5 min. The procedure:
as §1
After the ileum contraction curve stabilized, the tone values before adding the drug were recorded, then the drug or DMSO was added, and the average tone value of the ileum contraction curve at that point was recorded 5 minutes later. The operation was repeated 8 times. The antispasmodic percentage was calculated according to the following formula. Antispasmodic percentage =; (Tone value before adding subject compound−Tone value after adding subject compound)/(Tone value before adding subject compound) × 100% [formula]

With `O=P(O)(O)OCN1CCC(=C2c3ccc(Cl)cc3CCc3cccnc32)CC1` [Compound III-1], in the assay on histamine-induced asthma, the “Post-administration latency period” value was determined as 388.39 ± 53.23 s and the “Pre-administration latency period” value is 99.34 ± 49.57 s. In the assay with histamine, the “Smooth muscle tone (g) After addition of histamine” value (“Smooth muscle tone … of histamine” for short) was determined as 3.44 ± 1.10 g, the “Smooth muscle tone (g) Before administration” value came to 1.81 ± 0.19 g and the “Antispasmodic percentage (%)” value is listed as 67.44±15.23%. Moreover, the “Smooth muscle tone (g) After administration” value in assay [1] worked out at 1.12 ± 0.25 g. In assay [2], the “Smooth muscle tone (g) After administration” value is 1.10 ± 0.22 g, the “Smooth muscle tone (g) Before administration” value came out at 1.74 ± 0.19 g and the “Antispasmodic percentage (%)” value is recorded as 36.78±18.11%.
Regarding `O=P(O)(O)OCN1CCC(=C2c3ccc(F)cc3CCc3cccnc32)CC1` [Compound III-2], in the assay with histamine-induced asthma, the “Post-administration latency period” value came out at 367.77 ± 50.21 s and the “Pre-administration latency period” value is 98.81 ± 50.32 s. Also, in the assay with histamine, the “Smooth muscle tone … of histamine” value worked out at 3.40 ± 0.99 g, the “Smooth muscle tone (g) Before administration” value stood at 1.75 ± 0.16 g and the “Antispasmodic percentage (%)” value is reported as 67.65±17.99%. Besides, the “Smooth muscle tone (g) After administration” value in assay [1] is 1.10 ± 0.19 g. Besides, in assay [2], the “Smooth muscle tone (g) After administration” value was 1.15 ± 0.20 g, the “Smooth muscle tone (g) Before administration” value was 1.72 ± 0.23 g and the “Antispasmodic percentage (%)” value came out at 33.14±15.19%.
In the case of `O=P(O)(O)OCN1CCC(=C2c3ccc(Br)cc3CCc3cccnc32)CC1` [Compound III-3], in the assay with histamine, the “Smooth muscle tone … of histamine” value was 3.50 ± 1.19 g and the “Antispasmodic percentage (%)” value is 66.28±16.30%. Moreover, the “Antispasmodic percentage (%)” value in assay [2] is given as 29.82±18.20%.
With `O=P(O)(O)OCCN1CCC(=C2c3ccc(Cl)cc3CCc3cccnc32)CC1` [Compound III-4], in the assay with histamine-induced asthma, the “Post-administration latency period” value amounted to 366.40 ± 50.23 s and the “Pre-administration latency period” value stood at 97.99 ± 50.18 s. In the assay on histamine, the “Smooth muscle tone … of histamine” value is 3.48 ± 0.98 g, the “Smooth muscle tone (g) Before administration” value turned out to be 1.75 ± 0.18 g and the “Antispasmodic percentage (%)” value came out at 65.23±19.91%. For the same compound, the “Smooth muscle tone (g) After administration” value in assay [1] is 1.21 ± 0.20 g. In addition, in assay [2], the “Smooth muscle tone (g) After administration” value amounted to 1.17 ± 0.21 g, the “Smooth muscle tone (g) Before administration” value was 1.70 ± 0.20 g and the “Antispasmodic percentage (%)” value is on record as 31.17±20.11%.
Take `O=P(O)(O)OCCN1CCC(=C2c3ccc(F)cc3CCc3cccnc32)CC1` [Compound III-5]: in the assay with histamine-induced asthma, the “Post-administration latency period” value was 371.19 ± 44.59 s and the “Pre-administration latency period” value came to 100.10 ± 43.29 s. Besides, in the assay with histamine, the “Smooth muscle tone … of histamine” value turned out to be 3.40 ± 0.83 g, the “Smooth muscle tone (g) Before administration” value was 1.79 ± 0.20 g and the “Antispasmodic percentage (%)” value turned out to be 65.58±20.01%. Further, the “Smooth muscle tone (g) After administration” value in assay [1] was found to be 1.17 ± 0.23 g. Also, in assay [2], the “Smooth muscle tone (g) After administration” value worked out at 1.18 ± 0.22 g, the “Smooth muscle tone (g) Before administration” value turned out to be 1.73 ± 0.21 g and the “Antispasmodic percentage (%)” value is listed as 31.79±16.94%.
For `O=P(O)(O)OCCN1CCC(=C2c3ccc(Br)cc3CCc3cccnc32)CC1` [Compound III-6], in the assay on histamine-induced asthma, the “Post-administration latency period” value came to 373.29 ± 50.22 s and the “Pre-administration latency period” value turned out to be 95.26 ± 48.88 s. Besides, in the assay with histamine, the “Smooth muscle tone … of histamine” value came to 3.47 ± 0.90 g, the “Smooth muscle tone (g) Before administration” value came out at 1.83 ± 0.18 g and the “Antispasmodic percentage (%)” value is given as 65.42±17.83%. In assay [1], the “Smooth muscle tone (g) After administration” value stood at 1.20 ± 0.20 g. Besides, in assay [2], the “Smooth muscle tone (g) After administration” value stood at 1.16 ± 0.27 g, the “Smooth muscle tone (g) Before administration” value came to 1.72 ± 0.20 g and the “Antispasmodic percentage (%)” value came out at 32.56±17.27%.
In the case of `O=P(O)(O)OCCCN1CCC(=C2c3ccc(F)cc3CCc3cccnc32)CC1` [Compound III-8], the “Antispasmodic percentage (%)” value in the assay with histamine amounted to 66.47±18.83%; in assay [2] it was 33.72±19.01%. Further, the “Smooth muscle tone (g) After administration” value in assay [1] turned out to be 1.16 ± 0.25 g; in assay [2], 1.14 ± 0.23 g.
As to `O=P(O)(O)OCCCN1CCC(=C2c3ccc(Br)cc3CCc3cccnc32)CC1` [Compound III-9], in the assay with histamine-induced asthma, the “Post-administration latency period” value came to 362.84 ± 53.77 s. Moreover, the “Antispasmodic percentage (%)” value amounted to 67.33±19.34% with histamine and 30.59±20.02% in assay [2]. In addition, the “Smooth muscle tone (g) After administration” value in assay [1] is 1.14 ± 0.26 g; in assay [2], 1.18 ± 0.25 g.
In the case of `O=P(O)(O)OCCCCN1CCC(=C2c3ccc(F)cc3CCc3cccnc32)CC1` [Compound III-11], the “Post-administration latency period” value with histamine-induced asthma turned out to be 373.33 ± 50.81 s. Further, in the assay on histamine, the “Antispasmodic percentage (%)” value was found to be 66.37±17.33%. Also, the “Smooth muscle tone (g) After administration” value in assay [1] stood at 1.16 ± 0.20 g; in assay [2], 1.17 ± 0.22 g.
As to `O=P(O)(O)OCCCCN1CCC(=C2c3ccc(Br)cc3CCc3cccnc32)CC1` [Compound III-12], in the assay on histamine-induced asthma, the “Post-administration latency period” value was 359.80 ± 51.47 s and the “Pre-administration latency period” value was determined as 99.91 ± 49.45 s. Further, in the assay with histamine, the “Smooth muscle tone … of histamine” value amounted to 3.45 ± 0.94 g, the “Smooth muscle tone (g) Before administration” value turned out to be 1.82 ± 0.21 g and the “Antispasmodic percentage (%)” value worked out at 64.92±17.49%. Also, in assay [1], the “Smooth muscle tone (g) After administration” value came out at 1.21 ± 0.23 g. In addition, in assay [2], the “Smooth muscle tone (g) After administration” value worked out at 1.25 ± 0.21 g, the “Smooth muscle tone (g) Before administration” value came out at 1.74 ± 0.23 g and the “Antispasmodic percentage (%)” value is recorded as 28.16±21.10%.
On to `O=P(O)(O)OCCCCCN1CCC(=C2c3ccc(Br)cc3CCc3cccnc32)CC1` [Compound III-15], for which, in the assay with histamine-induced asthma, the “Post-administration latency period” value was 359.61 ± 50.22 s and the “Pre-administration latency period” value was 99.11 ± 51.09 s. Also, in the assay with histamine, the “Smooth muscle tone … of histamine” value turned out to be 3.40 ± 0.89 g, the “Smooth muscle tone (g) Before administration” value is 1.80 ± 0.20 g and the “Antispasmodic percentage (%)” value is given as 65.59±18.88%. Further, the “Smooth muscle tone (g) After administration” value in assay [1] was 1.17 ± 0.23 g. In assay [2], the “Smooth muscle tone (g) After administration” value worked out at 1.13 ± 0.20 g, the “Smooth muscle tone (g) Before administration” value came out at 1.74 ± 0.22 g and the “Antispasmodic percentage (%)” value worked out at 35.05±18.37%.
Consider `O=P(O)(O)OCOCCN1CCC(=C2c3ccc(Cl)cc3CCc3cccnc32)CC1` [Compound III-16], for which, in the assay with histamine-induced asthma, the “Post-administration latency period” value came to 363.23 ± 50.55 s and the “Pre-administration latency period” value is 95.92 ± 50.22 s. Further, in the assay with histamine, the “Smooth muscle tone … of histamine” value turned out to be 3.42 ± 0.92 g, the “Smooth muscle tone (g) Before administration” value came out at 1.83 ± 0.21 g and the “Antispasmodic percentage (%)” value is recorded as 65.49±19.23%. The “Smooth muscle tone (g) After administration” value in assay [1] stood at 1.18 ± 0.25 g. In addition, in assay [2], the “Smooth muscle tone (g) After administration” value was determined as 1.15 ± 0.24 g, the “Smooth muscle tone (g) Before administration” value worked out at 1.72 ± 0.20 g and the “Antispasmodic percentage (%)” value was 33.14±18.54%.
With `O=P(O)(O)OCOCCCN1CCC(=C2c3ccc(Cl)cc3CCc3cccnc32)CC1` [Compound III-17], in the assay with histamine-induced asthma, the “Post-administration latency period” value was 360.28 ± 51.00 s and the “Pre-administration latency period” value is 96.93 ± 53.19 s. Moreover, in the assay with histamine, the “Smooth muscle tone … of histamine” value was 3.41 ± 0.84 g, the “Smooth muscle tone (g) Before administration” value came out at 1.83 ± 0.25 g and the “Antispasmodic percentage (%)” value stood at 65.10±19.10%. For the same compound, in assay [1], the “Smooth muscle tone (g) After administration” value amounted to 1.19 ± 0.29 g. Moreover, in assay [2], the “Smooth muscle tone (g) After administration” value stood at 1.14 ± 0.28 g, the “Smooth muscle tone (g) Before administration” value was determined as 1.71 ± 0.23 g and the “Antispasmodic percentage (%)” value worked out at 33.33±19.10%.
As for `O=P(O)(O)OCOCCCCCN1CCC(=C2c3ccc(Cl)cc3CCc3cccnc32)CC1` [Compound III-19], in the assay on histamine-induced asthma, the “Post-administration latency period” value is 355.71 ± 50.33 s and the “Pre-administration latency period” value is 98.46 ± 52.04 s. Also, in the assay on histamine, the “Smooth muscle tone … of histamine” value was 3.43 ± 0.94 g, the “Smooth muscle tone (g) Before administration” value amounted to 1.82 ± 0.21 g and the “Antispasmodic percentage (%)” value came out at 65.59±18.97%. Further, the “Smooth muscle tone (g) After administration” value in assay [1] is 1.18 ± 0.28 g. Further, in assay [2], the “Smooth muscle tone (g) After administration” value was 1.15 ± 0.24 g, the “Smooth muscle tone (g) Before administration” value is 1.72 ± 0.25 g and the “Antispasmodic percentage (%)” value worked out at 33.13±19.91%.
